According to patent US20070059756A1, “Immunointeractive molecules and their uses in treating subjects suffering from Hev b 5 allergies” (priority 1999, published 2007):

Columns and labels:
IFNγ = IFNγ production by latex specific oligoclonal T cells (ELISA on culture supernatants); type: cell-based, human; settings: supernatant at 48 hours
Method: (§1) Representative stimulatory and non-stimulatory peptides were selected and T cells cultured in triplicate with these peptides. At 48 hours 50 μl of supernatant was harvested from the cultures and IL-5 and IFNγ were assayed by ELISA using paired cytokine antibodies (from Pharmingen Becton Dickinson, USA and Endogen, USA respectively). For this, opaque flat bottom ELISA plates (Nalgene, Nunc International) were coated with 30 μl capture antibody at 2 μg/ml in 0.1 M NaHCO3 pH 8.2 coating buffer overnight at 4° C. After washing three times with PBS/0.5% Tween the wells were blocked with 3% BSA/PBS at room temperature for 2 hours. The plates were washed and 30 μL pooled triplicate culture supernatants added in duplicate. […] Light emission was read immediately on a Lumicount microplate Glow Luminometer (Packard Instrument Company). A standard curve was run each time using known concentrations of standard cytokine samples and the concentrations of IL-S and IFNγ in the culture supernatants calculated accordingly. The lower limit of detection of the IL-5 assay was 20 pg/ml and the lower limit of detection of the IFN-γ assay was 2 pg/ml.

IL-5 = IL-5 production by latex specific oligoclonal T cells (ELISA on culture supernatants); type: cell-based, human; settings: for IL-5: supernatant at 48 hours
Method: as §1

[1] = tested on: latex specific T cell lines; assay: Oligoclonal T cell proliferation assay (3H-thymidine incorporation); type: cell-based, human; parameters: key to Proliferation inducing (+) or non-inducing (−) peptide: Proliferation inducing and non-inducing peptides are indicated by (+) and (−) respectively; Proliferation inducing and non-inducing peptides are indicated by (+) and (−) respectively; settings: for Oligoclonal proliferative response: 4 day cultures
Method: Latex specific T cell lines were isolated using our well established methods for the generation of allergen specific oligoclonal T cell populations (O'Hehir et al., 1987). An initial primary culture was performed for each patient to determine the optimal concentration of LAL for stimulation. For this, peripheral blood mononuclear cells (PBMC) separated from heparinised venous blood by density centrifugation (2×10^5/well) were stimulated with LAL over a concentration range 0.03 to 100 μg/ml, with control cultures of PBMC alone or stimulated with tetanus toxoid. All cultures were maintained in complete medium (RPMI-1640, Gibco Life Technologies supplemented with 2 mmol/L L-glutamine, 100 IU/ml penicillin-streptomycin and 5% screened, heat inactivated human AB serum [Sigma]). […] Therefore, to generate T cell lines, PBMC (2.5×10^6/well) were stimulated for 1 week with LAL at a concentration of 20 μg/ml in 24-well tissue culture plates (Costar, USA). After 7 days, lymphoblasts (1×10^6/well) were restimulated for one week with LAL at a concentration of 20 μg/ml in the presence of an equal number of irradiated (3000 rad) autologous PBMC as antigen presenting cells (APC). On days 2 and 4, cultures were supplemented with Lymphocult-T (5% v/v; Biotest Folex, Germany) and fresh medium. At the end of the second week, lymphoblasts were restimulated for one week with rhev b 5/MBP at a concentration of 20 μg/ml as described above. Oligoclonal T cells were recovered, washed and tested in proliferation and cytokine assays (as described below) either fresh or after cryopreservation in liquid nitrogen. We have previously shown that CD4^+ T cells are preferentially expanded in these cultures.
Oligoclonal T cell blasts (5×10^4) were incubated in 96-well round bottom plates (Linbro, ICN Biomedicals, USA) in triplicate with equal numbers of irradiated APC in the presence of LAL at concentrations ranging from 0.03-100 μg/ml, rHev b 5/MBP (10 and 20 μg/ml), MBP (10 and 20 μg/ml), overlapping peptides of the Hev b 5 sequence (10 and 30 μg/ml), Lymphocult-T (10 IU/ml) or PHA (3 μg/ml). Cultures of T cells and APC in the absence of antigen, T cells alone and APC alone in the absence of antigen were included as controls. After 72 hours cultures were pulsed with 1 μCi of ^3H-thymidine (^3HTdR; Du Pont, NEN) and harvested 12-16 hours later. Proliferation as correlated with ^3HTdR incorporation was measured by liquid scintillation spectroscopy. Results are expressed as mean counts per minute (cpm) for triplicate cultures with standard deviation (SD; ±20% for all experiments).

IgE = settings: cited from earlier work
[2] = P1 T cell line, peptide 10 μg/ml
[3] = P1 T cell line, peptide 30 μg/ml
[4] = P2 T cell line, peptide 10 μg/ml
[5] = P2 T cell line, peptide 30 μg/ml
[6] = P3 T cell line, peptide 10 μg/ml
[7] = P3 T cell line, peptide 30 μg/ml
[8] = P4 T cell line, peptide 10 μg/ml
[9] = P4 T cell line, peptide 30 μg/ml

Question: For TPEKEEPTAAPAEPEAPAPE [Hev b 5 (46-65)], which IFNγ (IFNγ; [2]) is on record?
Answer: 2 pg/mL

Question: What about the IFNγ (IFNγ; [3]) of the same molecule?
Answer: 2 pg/mL

Question: What about the IFNγ (IFNγ; [4]) of the same molecule?
Answer: 18 pg/mL

Question: What about the IFNγ (IFNγ; [5]) of the same molecule?
Answer: 54 pg/mL

Question: And the IFNγ (IFNγ; [6])?
Answer: 388 pg/mL

Question: And the IFNγ (IFNγ; [7])?
Answer: 227 pg/mL

Question: What about the IFNγ (IFNγ; [8]) of the same molecule?
Answer: 25 pg/mL

Question: What about the IFNγ (IFNγ; [9]) of the same molecule?
Answer: 12 pg/mL

Question: And the IL-5/IFNγ ratio (IL-5; [2])?
Answer: 172

Question: And the IL-5 (IL-5; [2])?
Answer: 344 pg/mL

Question: And the IL-5/IFNγ ratio (IL-5; [3])?
Answer: 139.5

Question: What about the IL-5 (IL-5; [3]) of the same molecule?
Answer: 279 pg/mL

Question: What about the IL-5/IFNγ ratio (IL-5; [4]) of the same molecule?
Answer: 3.2

Question: And the IL-5 (IL-5; [4])?
Answer: 58 pg/mL

Question: And the IL-5/IFNγ ratio (IL-5; [5])?
Answer: 7.6

Question: What about the IL-5 (IL-5; [5]) of the same molecule?
Answer: 408 pg/mL

Question: And the IL-5/IFNγ ratio (IL-5; [6])?
Answer: 9.8

Question: What about the IL-5 (IL-5; [6]) of the same molecule?
Answer: 3799 pg/mL

Question: What about the IL-5/IFNγ ratio (IL-5; [7]) of the same molecule?
Answer: 14

Question: And the IL-5 (IL-5; [7])?
Answer: 3186 pg/mL

Question: And the IL-5/IFNγ ratio (IL-5; [8])?
Answer: 22.4

Question: And the IL-5 (IL-5; [8])?
Answer: 561 pg/mL

Question: What about the IL-5/IFNγ ratio (IL-5; [9]) of the same molecule?
Answer: 43.2

Question: What about the IL-5 (IL-5; [9]) of the same molecule?
Answer: 519 pg/mL

Question: And the “secretion of IL-5 (in words)” value (IL-5; patient 4 T cell line)?
Answer: secretion of IL-5

Question: What about the “Proliferation inducing (+) or non-inducing (−) peptide” value ([1]; P1 T cell line) of the same molecule?
Answer: 46-65 (+)

Question: What about the Oligoclonal proliferative response ([1]; P1 T cell line, antigen 10 μg/ml) of the same molecule?
Answer: 21.3 counts per minute × 10^−3

Question: What about the Oligoclonal proliferative response ([1]; P1 T cell line, antigen 30 μg/ml) of the same molecule?
Answer: 19.6 counts per minute × 10^−3

Question: And the “Proliferation inducing (+) or non-inducing (−) peptide” value ([1]; P2 T cell line)?
Answer: 46-65 (+)

Question: And the Oligoclonal proliferative response ([1]; P2 T cell line, antigen 10 μg/ml)?
Answer: 13.4 counts per minute × 10^−3

Question: What about the Oligoclonal proliferative response ([1]; P2 T cell line, antigen 30 μg/ml) of the same molecule?
Answer: 22.6 counts per minute × 10^−3

Question: What about the “Proliferation inducing (+) or non-inducing (−) peptide” value ([1]; P3 T cell line) of the same molecule?
Answer: 46.65 (+)

Question: What about the Oligoclonal proliferative response ([1]; P3 T cell line, antigen 10 μg/ml) of the same molecule?
Answer: 25.8 counts per minute × 10^−3

Question: What about the Oligoclonal proliferative response ([1]; P3 T cell line, antigen 30 μg/ml) of the same molecule?
Answer: 19.2 counts per minute × 10^−3

Question: What about the “Proliferation inducing (+) or non-inducing (−) peptide” value ([1]; P4 T cell line) of the same molecule?
Answer: 46-65 (+)

Question: What about the Oligoclonal proliferative response ([1]; P4 T cell line, antigen 10 μg/ml) of the same molecule?
Answer: 4.4 counts per minute × 10^−3

Question: And the Oligoclonal proliferative response ([1]; P4 T cell line, antigen 30 μg/ml)?
Answer: 5.3 counts per minute × 10^−3

Question: What about the Oligoclonal proliferative response ([1]; P5 T cell line, antigen 10 μg/ml) of the same molecule?
Answer: 4.9 counts per minute × 10^−3

Question: What about the Oligoclonal proliferative response ([1]; P5 T cell line, antigen 30 μg/ml) of the same molecule?
Answer: 5.6 counts per minute × 10^−3

Question: And the Oligoclonal proliferative response ([1]; P6 T cell line, antigen 10 μg/ml)?
Answer: 1.5 counts per minute × 10^−3

Question: And the Oligoclonal proliferative response ([1]; P6 T cell line, antigen 30 μg/ml)?
Answer: 1.2 counts per minute × 10^−3

Question: What about the stimulation index ([1]; fifth of five donors (patient 5)) of the same molecule?
Answer: 5.6

Question: What about the stimulation index ([1]; first of five donors with IgE reactivity to rHev b 5/MBP (patient 1)) of the same molecule?
Answer: 5.9

Question: What about the “donors whose T cells proliferated in response to the peptide” value ([1]; five donors with IgE reactivity to rHev b 5/MBP) of the same molecule?
Answer: all five donors

Question: What about the stimulation index ([1]; fourth of five donors (patient 4)) of the same molecule?
Answer: 5.9

Question: And the stimulation index ([1]; second of five donors (patient 2))?
Answer: 10.8

Question: What about the stimulation index ([1]; third of five donors (patient 3)) of the same molecule?
Answer: 5.0

B1: Hev b 5: major allergen in natural rubber latex, highly acidic and proline rich protein of Hevea brasiliensis (protein, listed as Hevea brasiliensis)
chain: MASVEVESAATALPKNETPEVTKAEETKTEEPAAPPASEQETADATPEKEEPTAAPAEPEAPAPETEKAEEVEKIEKTEEPAPEADQTTPEEKPAEPEPVAEEEPKHETKETETEAPAAPAEGEKPAEEEKPITEAAETATTEVPVEKTEE
Question: For B1, which “proportion of HCW with latex allergy whose IgE reacts” value (IgE; HCW) is on record?
Answer: 92%

Question: What about the “proportion of spina bifida patients with latex allergy whose IgE reacts” value (IgE; spina bifida patients) of the same molecule?
Answer: 56%
